According to US20170008888A1 (KYORIN PHARMACEUTICAL CO., LTD., priority 2014, published 2017):

Legend:
human PBMCs = test: Human PBMC TNF-α response to endotoxin (ELISA); assay type: cell-based; details: 0.1 μg/ml LPS 16 h, read-out: EC50 for the inhibition of the human PBMC TNF-α response to endotoxin, ave. ± S.D.
Method in brief: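 PBMCs at 2e6 cells/ml in RPMI 1640 with 10% charcoal-dextran-treated FBS were pre-treated 1 h at 37 °C with compound (4-point 1:5 dilution from 10 μM). Stimulation with 0.1 μg/ml E. coli 0111:B4 LPS for 16 h; TNF-α measured by ELISA (A450) in 25-fold diluted supernatant.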

[1] = target: T1, recombinant human ERK5 catalytic domain (Homo sapiens, UniProt Q13164); test: Recombinant human ERK5 radiometric (HotSpot) assay; assay type: biochemical; details: 10 μM ATP, 20 μM myelin basic protein substrate; read-out: rhERK5 IC50
T1 construct: Recombinant human ERK5 catalytic domain radiometric assays; purchased Reaction Biology, Corp (Malvern, Pa.), which ran the assay as a service
T1 sequence (Q13164 55-347 limits assumed): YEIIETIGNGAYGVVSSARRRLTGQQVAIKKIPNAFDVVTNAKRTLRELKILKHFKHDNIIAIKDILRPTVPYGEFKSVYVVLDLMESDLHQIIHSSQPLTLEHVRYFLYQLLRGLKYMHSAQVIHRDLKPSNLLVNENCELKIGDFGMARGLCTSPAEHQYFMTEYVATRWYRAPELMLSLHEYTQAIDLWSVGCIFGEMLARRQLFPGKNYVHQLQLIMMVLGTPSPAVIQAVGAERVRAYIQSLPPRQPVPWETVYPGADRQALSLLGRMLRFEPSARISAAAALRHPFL
Protocol: In this example, potency of the compounds in recombinant human ERK5 was assayed.
Recombinant human ERK5 catalytic domain radiometric assays were performed by Reaction Biology, Corp (Malvern, Pa.). The HotSpot radiometric assay is based on conventional filter-binding assays (Nature Biotechnology (2011) 29: 1039-1045). Compounds were tested at 20 μM down by ⅓ in a 10 point serial dilution series. Briefly, [γ-33P]-ATP was used as the tracer along with 10 μM cold ATP to label ERK5 in the presence of 20 μM myelin basic protein substrate.

ACK = target: T2, ACK (Homo sapiens, UniProt Q07912); test: Probe-based (AX9989) kinase profiling in Jurkat lysate: ACK; assay type: binding; details: screening concentration 1.0 μM; read-out: Kinase inhibition % at indicated screening concentration: ACK
T2 construct: screened for activity against several kinases in Jurkat cells; endogenous in cells; host or cells: Jurkat cell lysate
T2 sequence (Q07912 whole entry): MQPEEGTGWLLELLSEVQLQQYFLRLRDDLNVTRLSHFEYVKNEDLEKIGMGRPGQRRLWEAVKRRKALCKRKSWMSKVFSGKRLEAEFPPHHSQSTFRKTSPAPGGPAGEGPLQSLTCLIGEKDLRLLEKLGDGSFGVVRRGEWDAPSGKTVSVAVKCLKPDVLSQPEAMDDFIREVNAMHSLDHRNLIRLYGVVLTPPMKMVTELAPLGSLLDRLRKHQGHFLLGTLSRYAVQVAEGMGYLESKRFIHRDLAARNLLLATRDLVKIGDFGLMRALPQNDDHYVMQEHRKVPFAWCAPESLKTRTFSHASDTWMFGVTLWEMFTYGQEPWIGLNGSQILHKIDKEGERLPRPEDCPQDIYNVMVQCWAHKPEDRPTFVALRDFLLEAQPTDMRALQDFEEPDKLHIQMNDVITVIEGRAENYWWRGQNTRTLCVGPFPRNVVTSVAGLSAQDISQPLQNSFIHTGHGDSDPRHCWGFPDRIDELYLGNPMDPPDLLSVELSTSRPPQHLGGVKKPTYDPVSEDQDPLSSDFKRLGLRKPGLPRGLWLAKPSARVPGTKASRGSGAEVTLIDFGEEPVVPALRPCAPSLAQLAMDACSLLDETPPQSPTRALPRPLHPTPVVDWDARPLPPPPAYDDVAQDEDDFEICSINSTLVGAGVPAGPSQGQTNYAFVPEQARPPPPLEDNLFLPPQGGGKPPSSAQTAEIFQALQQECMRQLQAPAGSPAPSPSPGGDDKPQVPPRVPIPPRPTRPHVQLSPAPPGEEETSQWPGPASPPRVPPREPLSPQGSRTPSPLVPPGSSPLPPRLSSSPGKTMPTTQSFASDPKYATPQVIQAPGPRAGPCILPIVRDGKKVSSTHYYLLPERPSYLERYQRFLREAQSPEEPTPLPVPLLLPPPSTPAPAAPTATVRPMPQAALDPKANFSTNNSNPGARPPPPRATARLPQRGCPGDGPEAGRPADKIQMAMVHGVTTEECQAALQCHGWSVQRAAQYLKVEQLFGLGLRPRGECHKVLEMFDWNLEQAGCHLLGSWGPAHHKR
Method in brief: (§1)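 Read-out: LC/MS intensity of desthiobiotinylated kinase active-site peptides, percent inhibition normalized to no-compound lysate. Jurkat lysate with 20 mM MnCl2 received compound for 15 min at room temperature, then 5 μM AX9989 probe; duplicates.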

AMPKa1 or AMPKa2 = test: Probe-based (AX9989) kinase profiling in Jurkat lysate: AMPKa1 or AMPKa2; assay type: binding; details: screening concentration 1.0 μM
Method in brief: as §1

JAK1 = target: T3, JAK1 (Homo sapiens, UniProt P23458); test: Probe-based (AX9989) kinase profiling in Jurkat lysate: JAK1; assay type: binding; details: screening concentration 1.0 μM; read-out: Kinase inhibition % at indicated screening concentration: JAK1
T3 construct: screened for activity against several kinases in Jurkat cells; endogenous in cells; host or cells: Jurkat cell lysate
T3 sequence (P23458 whole entry): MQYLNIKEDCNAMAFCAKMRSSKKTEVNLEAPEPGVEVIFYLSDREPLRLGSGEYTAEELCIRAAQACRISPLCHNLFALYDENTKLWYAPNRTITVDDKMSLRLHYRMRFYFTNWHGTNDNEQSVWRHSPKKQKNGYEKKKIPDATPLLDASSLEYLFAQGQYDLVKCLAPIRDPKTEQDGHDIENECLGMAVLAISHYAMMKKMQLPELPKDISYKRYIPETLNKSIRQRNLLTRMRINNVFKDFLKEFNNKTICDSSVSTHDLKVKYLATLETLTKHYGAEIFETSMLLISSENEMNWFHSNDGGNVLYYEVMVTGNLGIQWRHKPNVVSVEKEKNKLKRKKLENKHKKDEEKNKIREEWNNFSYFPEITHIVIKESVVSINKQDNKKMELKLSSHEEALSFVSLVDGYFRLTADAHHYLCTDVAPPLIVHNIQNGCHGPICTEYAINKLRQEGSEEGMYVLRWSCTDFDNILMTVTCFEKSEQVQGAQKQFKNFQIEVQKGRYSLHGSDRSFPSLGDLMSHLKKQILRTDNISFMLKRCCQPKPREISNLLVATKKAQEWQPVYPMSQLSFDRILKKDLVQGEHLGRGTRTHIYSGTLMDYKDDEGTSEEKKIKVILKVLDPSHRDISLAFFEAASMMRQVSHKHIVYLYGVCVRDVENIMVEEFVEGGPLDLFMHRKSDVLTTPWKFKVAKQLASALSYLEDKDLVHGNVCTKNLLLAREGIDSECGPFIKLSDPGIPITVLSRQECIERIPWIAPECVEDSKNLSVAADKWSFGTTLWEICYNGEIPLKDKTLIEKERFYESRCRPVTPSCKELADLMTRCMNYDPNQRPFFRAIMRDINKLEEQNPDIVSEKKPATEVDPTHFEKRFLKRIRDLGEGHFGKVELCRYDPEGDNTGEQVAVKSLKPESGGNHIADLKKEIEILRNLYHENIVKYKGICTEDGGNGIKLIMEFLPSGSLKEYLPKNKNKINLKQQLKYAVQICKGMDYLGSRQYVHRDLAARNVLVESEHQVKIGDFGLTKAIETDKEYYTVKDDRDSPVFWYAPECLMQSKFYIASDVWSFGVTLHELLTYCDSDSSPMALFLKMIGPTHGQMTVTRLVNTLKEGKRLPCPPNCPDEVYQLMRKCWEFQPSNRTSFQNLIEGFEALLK
Method in brief: as §1

ABL or ARG = test: Probe-based (AX9989) kinase profiling in Jurkat lysate: ABL or ARG; assay type: binding; details: screening concentration 1.0 μM
Method in brief: as §1

AurB or AurC = test: Probe-based (AX9989) kinase profiling in Jurkat lysate: AurB or AurC; assay type: binding; details: screening concentration 1.0 μM
Method in brief: as §1

[2] = target: T4, BRD4 bromodomain domain I [BRD4(1)] (Homo sapiens, UniProt O60885); test: BRD4 bromodomain domain 1 inhibition assay (TR-FRET); assay type: binding; details: screening concentration 10 μM
T4 construct: BRD4 bromodomain domain I [BRD4(1)]; purchased Cayman Chemicals
Protocol: The inhibitory activity of test compounds on the bromodomain, BRD4 bromodomain domain I [BRD4(1)], were determined via TR-FRET after a slight modification of the manufacturer's protocol (Cayman Chemicals, Ann Arbor, Mich.). Briefly, compounds were diluted to a 20× ([…]) concentration in DMSO. 100 nL of 20× compounds were then dry stamped into triplicate wells of black, low volume 384 well plates (Aurora Biotechnologies, Carlsbad, Calif.) using the Mosquito liquid handler (TPP Labtech, Melbourn, UK). 20× compounds were then diluted to a 4× (40 μM) concentration in Assay Buffer to result in 2% DMSO content. […] JQ1 at 10 μM or 0.5% DMSO final concentrations were used as the positive and negative controls, respectively, to set the assay window. The fluorescence was read in a time-resolved format on the Biotec Synergy 2 plate reader by exciting the signal at 340 nm and reading emissions at 620 and 670, using a 100 μs delay and 200 μs read window. […] Briefly, TR-FRET ratio values were normalized to the average TR-FRET ratio value given by 10 μM JQ1. […]

ERK5 = target: T5, ERK5 (Homo sapiens, UniProt Q13164); test: Probe-based (AX9989 acyl phosphate ATP probe) kinase profiling in Jurkat lysate: ERK5; assay type: binding; details: for IC50: calculated from percent inhibition of AX9989 labeling and the screening concentration, Jurkat lysate; for inhibition at 1 µM: screening concentration 1.0 μM, read-out: Kinase inhibition % at indicated screening concentration: ERK5
T5 construct: screened for activity against several kinases in Jurkat cells; endogenous in cells; host or cells: Jurkat cell lysate
T5 sequence (Q13164 whole entry): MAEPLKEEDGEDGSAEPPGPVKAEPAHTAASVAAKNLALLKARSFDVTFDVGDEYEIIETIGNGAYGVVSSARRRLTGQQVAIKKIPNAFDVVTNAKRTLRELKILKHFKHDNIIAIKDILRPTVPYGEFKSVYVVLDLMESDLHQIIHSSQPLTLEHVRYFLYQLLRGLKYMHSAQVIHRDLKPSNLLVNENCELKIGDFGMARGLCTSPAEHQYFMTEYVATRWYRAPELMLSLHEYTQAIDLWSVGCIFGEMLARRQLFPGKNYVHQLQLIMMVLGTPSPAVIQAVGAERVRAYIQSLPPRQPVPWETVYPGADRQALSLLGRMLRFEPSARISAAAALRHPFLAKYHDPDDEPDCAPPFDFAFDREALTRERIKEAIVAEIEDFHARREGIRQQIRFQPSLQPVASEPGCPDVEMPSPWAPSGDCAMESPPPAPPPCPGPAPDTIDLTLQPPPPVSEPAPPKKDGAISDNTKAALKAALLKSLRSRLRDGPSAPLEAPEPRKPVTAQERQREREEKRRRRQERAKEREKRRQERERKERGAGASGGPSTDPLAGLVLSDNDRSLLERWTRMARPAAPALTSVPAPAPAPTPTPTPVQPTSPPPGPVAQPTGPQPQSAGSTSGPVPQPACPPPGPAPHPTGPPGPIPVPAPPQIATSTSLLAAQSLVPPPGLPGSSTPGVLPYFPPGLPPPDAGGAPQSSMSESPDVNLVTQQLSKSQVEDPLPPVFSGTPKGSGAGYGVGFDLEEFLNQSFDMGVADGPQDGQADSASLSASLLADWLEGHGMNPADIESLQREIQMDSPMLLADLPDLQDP
Method in brief: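 ERK5 IC50 values came from percent inhibition at the screening concentration, measured as loss of LC/MS signal of probe-labelled active-site peptides. Compound was added for 15 min at room temperature to Jurkat lysate (5 mg/ml, 20 mM MnCl2) before labelling with AX9989 ATP acyl phosphate probe at 5 μM.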

TAO2 = target: T6, TAO2 (Homo sapiens, UniProt Q9UL54); test: Probe-based (AX9989) kinase profiling in Jurkat lysate: TAO2; assay type: binding; details: screening concentration 1.0 μM; read-out: Kinase inhibition % at indicated screening concentration: TAO2
T6 construct: screened for activity against several kinases in Jurkat cells; endogenous in cells; host or cells: Jurkat cell lysate
T6 sequence (Q9UL54 1-1235): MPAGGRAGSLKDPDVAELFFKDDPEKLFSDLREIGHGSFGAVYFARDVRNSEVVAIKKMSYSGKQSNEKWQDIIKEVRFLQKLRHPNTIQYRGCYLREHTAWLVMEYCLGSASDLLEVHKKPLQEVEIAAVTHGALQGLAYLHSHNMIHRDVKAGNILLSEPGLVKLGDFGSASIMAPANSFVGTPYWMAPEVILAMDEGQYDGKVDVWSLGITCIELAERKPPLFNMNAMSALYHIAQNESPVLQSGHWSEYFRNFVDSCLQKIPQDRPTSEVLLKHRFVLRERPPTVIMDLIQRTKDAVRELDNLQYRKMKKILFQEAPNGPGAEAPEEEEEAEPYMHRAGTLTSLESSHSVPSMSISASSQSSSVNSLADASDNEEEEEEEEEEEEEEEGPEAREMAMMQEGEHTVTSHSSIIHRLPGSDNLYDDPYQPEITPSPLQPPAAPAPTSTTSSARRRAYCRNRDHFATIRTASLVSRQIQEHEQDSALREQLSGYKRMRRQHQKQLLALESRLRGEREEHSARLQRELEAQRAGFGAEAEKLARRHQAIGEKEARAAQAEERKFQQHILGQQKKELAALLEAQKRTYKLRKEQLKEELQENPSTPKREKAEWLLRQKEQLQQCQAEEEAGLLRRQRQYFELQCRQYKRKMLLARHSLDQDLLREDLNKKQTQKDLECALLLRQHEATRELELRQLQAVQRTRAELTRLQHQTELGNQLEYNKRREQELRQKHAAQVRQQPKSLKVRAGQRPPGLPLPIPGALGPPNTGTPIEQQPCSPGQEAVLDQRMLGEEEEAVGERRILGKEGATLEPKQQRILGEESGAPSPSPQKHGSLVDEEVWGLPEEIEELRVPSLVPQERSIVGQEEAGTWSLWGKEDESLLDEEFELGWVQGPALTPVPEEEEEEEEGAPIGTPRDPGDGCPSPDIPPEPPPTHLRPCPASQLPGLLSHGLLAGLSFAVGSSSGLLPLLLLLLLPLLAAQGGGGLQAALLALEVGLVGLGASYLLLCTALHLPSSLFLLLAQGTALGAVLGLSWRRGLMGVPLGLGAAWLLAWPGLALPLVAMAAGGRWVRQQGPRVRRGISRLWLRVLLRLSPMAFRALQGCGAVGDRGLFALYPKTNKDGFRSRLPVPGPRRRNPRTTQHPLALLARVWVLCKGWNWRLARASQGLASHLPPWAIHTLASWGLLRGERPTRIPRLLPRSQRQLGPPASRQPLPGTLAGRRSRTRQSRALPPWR
Method in brief: as §1

AurA = target: T7, AurA (Homo sapiens, UniProt O14965); test: Probe-based (AX9989) kinase profiling in Jurkat lysate: AurA; assay type: binding; details: screening concentration 1.0 μM; read-out: Kinase inhibition % at indicated screening concentration: AurA
T7 construct: screened for activity against several kinases in Jurkat cells; endogenous in cells; host or cells: Jurkat cell lysate
T7 sequence (O14965 1-403): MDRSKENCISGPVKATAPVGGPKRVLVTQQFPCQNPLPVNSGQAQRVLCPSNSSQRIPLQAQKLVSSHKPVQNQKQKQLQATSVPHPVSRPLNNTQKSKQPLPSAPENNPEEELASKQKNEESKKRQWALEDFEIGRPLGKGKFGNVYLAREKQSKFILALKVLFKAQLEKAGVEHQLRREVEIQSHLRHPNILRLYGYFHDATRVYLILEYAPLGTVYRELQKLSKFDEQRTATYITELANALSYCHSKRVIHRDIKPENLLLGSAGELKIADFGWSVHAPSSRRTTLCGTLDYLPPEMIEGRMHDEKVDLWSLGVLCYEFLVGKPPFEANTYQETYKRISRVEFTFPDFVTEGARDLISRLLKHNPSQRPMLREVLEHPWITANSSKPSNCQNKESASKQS
Method in brief: as §1

Structure (SMILES) | EC50 (human PBMCs) [nM] | IC50 [1] [nM] | inhibition at 1 µM (ACK) [%] | Kinase inhibition % at indicated screening concentration: AMPKa1 or AMPKa2 (AMPKa1 or AMPKa2) | inhibition at 1 µM (JAK1) [%] | Kinase inhibition % at indicated screening concentration: ABL or ARG (ABL or ARG) | Kinase inhibition % at indicated screening concentration: AurB or AurC (AurB or AurC) | inhibition at 10 µM [2] [%] | IC50 (ERK5) [nM] | inhibition at 1 µM (ERK5) [%] | inhibition at 1 µM (TAO2) [%] | inhibition at 1 µM (AurA) [%]
CCOc1cc(C(=O)N2CCC(N(C)CCO)CC2)ccc1Nc1cc2c(cn1)N(C)C(=O)c1ccccc1N2C [Compound T38] | 320 | 20 to 50 | – | – | – | – | – | – | – | – | – | –
CCOc1cc(C(=O)N2CCC[C@H](OC(=O)CN(C)C)C2)ccc1Nc1cc2c(cn1)N(C)C(=O)c1ccccc1N2C [Compound T44] | 650 | 20 to 50 | – | – | – | – | – | – | – | – | – | –
CCOc1cc(C(=O)N2CCC[C@H](C#N)C2)ccc1Nc1cc2c(cn1)N(C)C(=O)c1ccccc1N2C [Compound T24] | 3270 | > 200 | – | – | – | – | – | – | – | – | – | –
CCOc1cc(C(=O)N2CCC[C@@H](N3CCCC3)C2)ccc1Nc1cc2c(cn1)N(C)C(=O)c1ccccc1N2C [Compound T57] | 650 | 50 to 200 | – | – | – | – | – | – | – | – | – | –
CCOc1cc(C(=O)N2CC[C@@H](C#N)C2)ccc1Nc1cc2c(cn1)N(C)C(=O)c1ccccc1N2C [Compound T21] | 1280 | < 20 | – | – | – | – | – | – | – | – | – | –
CCOc1cc(C(=O)N2CCC(N3CCOCC3)CC2)ccc1Nc1cc2c(cn1)N(C)C(=O)c1ccccc1N2C [Compound T12] | 680 | 20 to 50 | – | – | – | – | – | – | – | – | – | –
CCOc1cc(C(=O)N2CCC[C@@H](C#N)C2)ccc1Nc1cc2c(cn1)N(C)C(=O)c1ccccc1N2C [Compound T23] | 2390 | > 200 | – | – | – | – | – | – | – | – | – | –
CN1C(=O)c2ccccc2N(C)c2cc(N[C@H]3CC[C@H](Nc4ncccn4)CC3)ncc21 [Compound 47] | – | – | ≤ 35 | E (E is ≦35%) | ≤ 35 | E (E is ≦35%) | E (E is ≦35%) | < 70 | > 500 | 35 to 50 | ≤ 35 | ≤ 35
CCOc1cc(C(=O)NC2CCC(O)CC2)ccc1Nc1cc2c(cn1)N(C)C(=O)c1ccccc1N2C (centres unmarked) [Compound 109] | – | – | ≤ 35 | E (E is ≦35%) | ≤ 35 | E (E is ≦35%) | E (E is ≦35%) | < 70 | > 500 | 35 to 50 | ≤ 35 | ≤ 35
CN1CCC(c2ccc(Nc3cc4c(cn3)N(C)C(=O)c3ccccc3N4C)cc2)CC1 [Compound 92] | – | – | ≤ 35 | E (E is ≦35%) | 35 to 50 | E (E is ≦35%) | C (C is >50% to ≦75%) | 70 to 85 | ≤ 50 | > 90 | 50 to 75 | ≤ 35
